ChEMBL document CHEMBL1201862, “PubChem BioAssay data set” (2004)
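All cell lines were grown in 96-well plates and treated with compound for 48 hours. GI50: concentration for 50% inhibition of growth.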 Activity calls are given as the source filed them. Rule as the data show it: active = GI50 up to about 1.1 µM and inactive = higher.

Key:
Assay in all cases: NCI anticancer screen, dose series, 48 h
A549 = tested on: A549
ACHN = tested on: ACHN
CCRF-CEM = tested on: CCRF-CEM
DU-145 = tested on: DU-145
HT-29 = tested on: HT-29
K562 = tested on: K562
MCF7 = tested on: MCF7
MOLT-4 = tested on: MOLT-4
Malme-3M = tested on: Malme-3M
NCI-H460 = tested on: NCI-H460
OVCAR-3 = tested on: OVCAR-3
PC-3 = tested on: PC-3
SK-MEL-5 = tested on: SK-MEL-5
SNB-75 = tested on: SNB-75
T47D = tested on: T47D
TK-10 = tested on: TK-10
UACC-257 = tested on: UACC-257
UACC-62 = tested on: UACC-62
UO-31 = tested on: UO-31
786-0 = tested on: 786-0

Measured: GI50

CN1Cc2cc(O)c(O)cc2C(O)C1 (configuration not stated)
inactive: A549 > 100 µM | ACHN > 100 µM | CCRF-CEM 34.8 µM | DU-145 > 100 µM | HT-29 > 100 µM | K562 > 100 µM | MCF7 > 100 µM | MOLT-4 > 100 µM | Malme-3M > 100 µM | NCI-H460 > 100 µM | OVCAR-3 > 100 µM | PC-3 > 100 µM | SK-MEL-5 > 100 µM | SNB-75 > 100 µM | T47D > 100 µM | TK-10 > 100 µM | UACC-257 > 100 µM | UACC-62 > 100 µM | UO-31 83 µM

c1ccc2c(c1)CCCN1CCc3ccccc3C21 (configuration not stated)
inactive: 786-0 80.9 µM | A549 60.1 µM | ACHN 68.9 µM | CCRF-CEM 49.1 µM | DU-145 > 100 µM | HT-29 29 µM | K562 30 µM | MCF7 > 100 µM | MOLT-4 50.9 µM | Malme-3M > 100 µM | NCI-H460 33.9 µM | OVCAR-3 > 100 µM | PC-3 41 µM | SK-MEL-5 23.3 µM | SNB-75 98.2 µM | T47D > 100 µM | TK-10 61.4 µM | UACC-257 77.1 µM | UACC-62 35.2 µM | UO-31 30.3 µM

CCCCCCCCCCCCCCCCCCNc1ccn(C2OC(COP(=O)(O)OCC3OC(n4cc(C)c(=O)[nH]c4=O)CC3O)C(O)C2O)c(=O)n1 (configuration not stated)
inactive: 786-0 18 µM | A549 17.8 µM | ACHN 21.1 µM | CCRF-CEM 10.4 µM | DU-145 17.8 µM | HT-29 16.7 µM | K562 19.8 µM | MCF7 34.6 µM | MOLT-4 10.6 µM | Malme-3M 16.6 µM | NCI-H460 17.9 µM | OVCAR-3 19 µM | PC-3 3.1 µM | SK-MEL-5 14.9 µM | SNB-75 17.5 µM | T47D 17.3 µM | TK-10 5.68 µM | UACC-257 18.1 µM | UACC-62 18.4 µM | UO-31 18.5 µM

O=c1[nH]cnc2c1ncn2[C@H]1CO[C@@H](CO)[C@@H]1O
inactive: 786-0 > 100 µM | ACHN > 100 µM | CCRF-CEM > 100 µM | DU-145 > 100 µM | HT-29 > 100 µM | K562 > 100 µM | MCF7 > 100 µM | MOLT-4 > 100 µM | Malme-3M > 100 µM | NCI-H460 > 100 µM | OVCAR-3 > 100 µM | PC-3 > 100 µM | SK-MEL-5 > 100 µM | SNB-75 > 100 µM | T47D > 100 µM | TK-10 > 100 µM | UACC-257 > 100 µM | UACC-62 > 100 µM | UO-31 > 100 µM

Cc1cccc(NC(=O)/C=C/c2ccccc2)c1C
inactive: 786-0 > 100 µM | A549 > 100 µM | ACHN > 100 µM | CCRF-CEM > 100 µM | DU-145 > 100 µM | HT-29 > 100 µM | K562 > 100 µM | MCF7 > 100 µM | MOLT-4 > 100 µM | Malme-3M > 100 µM | NCI-H460 > 100 µM | OVCAR-3 > 100 µM | PC-3 > 100 µM | SK-MEL-5 > 100 µM | SNB-75 77.6 µM | T47D > 100 µM | TK-10 > 100 µM | UACC-257 > 100 µM | UACC-62 > 100 µM
